Test results reported in ChEMBL document CHEMBL3769303, “Discovery of membrane active benzimidazole quinolones-based topoisomerase inhibitors as potential DNA-binding antimicrobial agents” (Eur J Med Chem, 2016).
Values after ≈ are worked out from the molar mass of the structure shown.

Key:
Type in all cases: functional
[1] = tested on: Pseudomonas aeruginosa; experiment: Antibacterial activity against Pseudomonas aeruginosa ATCC 27853 by micro broth dilution method
[2] = tested on: Saccharomyces cerevisiae; experiment: Antifungal activity against Saccharomyces cerevisiae ATCC 9763 after 24 hrs by micro broth dilution method; settings: ATCC 9763, 24 h
[3] = tested on: Shigella dysenteriae; experiment: Antibacterial activity against Shigella dysenteriae by micro broth dilution method
[4] = Antifungal activity against Candida mycoderma ATCC 9888 after 24 hrs by micro broth dilution method; settings: Candida vini
[5] = tested on: Salmonella enterica; experiment: Antibacterial activity against Salmonella enterica ATCC 14028 by micro broth dilution method
[6] = tested on: Escherichia coli; experiment: Antibacterial activity against Escherichia coli JM109 by micro broth dilution method
[7] = tested on: Candida albicans; experiment: Antifungal activity against Candida albicans ATCC 10231 after 24 hrs by micro broth dilution method; settings: ATCC 10231, 24 h
[8] = tested on: Staphylococcus aureus; experiment: Antibacterial activity against Staphylococcus aureus ATCC 25923 by micro broth dilution method
[9] = tested on: Escherichia coli; experiment: Antibacterial activity against Escherichia coli DH52 by micro broth dilution method
[10] = Antibacterial activity against Bacillus proteus ATCC 13315 by micro broth dilution method
[11] = tested on: Micrococcus luteus; experiment: Antibacterial activity against Micrococcus luteus ATCC 4698 by micro broth dilution method; settings: NCTC 2665
[12] = tested on: Bacillus spizizenii; experiment: Antibacterial activity against Bacillus subtilis ATCC 6633 by micro broth dilution method
[13] = tested on: Staphylococcus aureus; experiment: Antibacterial activity against methicillin-resistant Staphylococcus aureus N315 by micro broth dilution method
[14] = tested on: Aspergillus flavus; experiment: Antifungal activity against Aspergillus flavus ATCC 204304 after 24 hrs by micro broth dilution method; settings: ATCC 204304, 24 h
[15] = tested on: Cyberlindnera jadinii; experiment: Antifungal activity against Candida utilis ATCC 9950 after 24 hrs by micro broth dilution method; settings: Williopsis jadinii, ATCC 9950, 24 h

SMILES: O=C(O)c1cn(C2CC2)c2cc(N3CCN(Cc4nc5ccc(F)cc5[nH]4)CC3)c(F)cc2c1=O
- MIC [1]: 2 µg/mL (≈ 4.17 µM)
- MIC80 [2]: 0.5 µg/mL (≈ 1.04 µM)
- MIC [3]: 2 µg/mL (≈ 4.17 µM)
- MIC80 [4]: 2 µg/mL (≈ 4.17 µM)
- MIC [5]: 1 µg/mL (≈ 2.09 µM)
- MIC [6]: 4 µg/mL (≈ 8.34 µM)
- MIC80 [7]: 8 µg/mL (≈ 16.7 µM)
- MIC [8]: 4 µg/mL (≈ 8.34 µM)
- MIC [9]: 1 µg/mL (≈ 2.09 µM)
- MIC [10]: 1 µg/mL (≈ 2.09 µM)
- MIC [11]: 2 µg/mL (≈ 4.17 µM)
- MIC [12]: 0.5 µg/mL (≈ 1.04 µM)
- MIC [13]: 2 µg/mL (≈ 4.17 µM)
- MIC80 [14]: 1 µg/mL (≈ 2.09 µM)
- MIC80 [15]: 1 µg/mL (≈ 2.09 µM)

SMILES: O=C(O)c1cn(C2CC2)c2cc(N3CCN(CNc4nc5ccccc5[nH]4)CC3)c(F)cc2c1=O
- MIC [1]: 0.5 µg/mL (≈ 1.05 µM)
- MIC80 [2]: 4 µg/mL (≈ 8.39 µM)
- MIC [3]: 0.25 µg/mL (≈ 0.525 µM)
- MIC80 [4]: 0.5 µg/mL (≈ 1.05 µM)
- MIC [5]: 1 µg/mL (≈ 2.1 µM)
- MIC [6]: 4 µg/mL (≈ 8.39 µM)
- MIC80 [7]: 1 µg/mL (≈ 2.1 µM)
- MIC [8]: 1 µg/mL (≈ 2.1 µM)
- MIC [9]: 1 µg/mL (≈ 2.1 µM)
- MIC [10]: 1 µg/mL (≈ 2.1 µM)
- MIC [11]: 1 µg/mL (≈ 2.1 µM)
- MIC [12]: 1 µg/mL (≈ 2.1 µM)
- MIC [13]: 0.25 µg/mL (≈ 0.525 µM)
- MIC80 [14]: 16 µg/mL (≈ 33.6 µM)
- MIC80 [15]: 8 µg/mL (≈ 16.8 µM)

SMILES: O=C(O)c1cn(C2CC2)c2cc(N3CCN(Cc4nc5ccccc5n4Cc4ccc(F)cc4)CC3)c(F)cc2c1=O
- MIC [1]: 8 µg/mL (≈ 14 µM)
- MIC80 [2]: 16 µg/mL (≈ 28.1 µM)
- MIC [3]: 16 µg/mL (≈ 28.1 µM)
- MIC80 [4]: 16 µg/mL (≈ 28.1 µM)
- MIC [5]: 16 µg/mL (≈ 28.1 µM)
- MIC [6]: 16 µg/mL (≈ 28.1 µM)
- MIC80 [7]: 8 µg/mL (≈ 14 µM)
- MIC [8]: 16 µg/mL (≈ 28.1 µM)
- MIC [9]: 32 µg/mL (≈ 56.2 µM)
- MIC [10]: 16 µg/mL (≈ 28.1 µM)
- MIC [11]: 16 µg/mL (≈ 28.1 µM)
- MIC [12]: 8 µg/mL (≈ 14 µM)
- MIC [13]: 4 µg/mL (≈ 7.02 µM)
- MIC80 [14]: 8 µg/mL (≈ 14 µM)
- MIC80 [15]: 8 µg/mL (≈ 14 µM)

SMILES: CCCCCCCCn1c(CN2CCN(c3cc4c(cc3F)c(=O)c(C(=O)O)cn4C3CC3)CC2)nc2ccccc21
- MIC [1]: 1 µg/mL (≈ 1.74 µM)
- MIC80 [2]: 16 µg/mL (≈ 27.9 µM)
- MIC [3]: 4 µg/mL (≈ 6.97 µM)
- MIC80 [4]: 1 µg/mL (≈ 1.74 µM)
- MIC [5]: 4 µg/mL (≈ 6.97 µM)
- MIC [6]: 2 µg/mL (≈ 3.49 µM)
- MIC80 [7]: 1 µg/mL (≈ 1.74 µM)
- MIC [8]: 16 µg/mL (≈ 27.9 µM)
- MIC [9]: 0.5 µg/mL (≈ 0.872 µM)
- MIC [10]: 0.5 µg/mL (≈ 0.872 µM)
- MIC [11]: 1 µg/mL (≈ 1.74 µM)
- MIC [12]: 32 µg/mL (≈ 55.8 µM)
- MIC [13]: 1 µg/mL (≈ 1.74 µM)
- MIC80 [14]: 1 µg/mL (≈ 1.74 µM)
- MIC80 [15]: 2 µg/mL (≈ 3.49 µM)

SMILES: CCn1cc(C(=O)O)c(=O)c2cc(F)c(N3CCN(CNc4nc5ccccc5[nH]4)CC3)cc21
- MIC [1]: 1 µg/mL (≈ 2.15 µM)
- MIC80 [2]: 8 µg/mL (≈ 17.2 µM)
- MIC [3]: 0.5 µg/mL (≈ 1.08 µM)
- MIC80 [4]: 1 µg/mL (≈ 2.15 µM)
- MIC [5]: 2 µg/mL (≈ 4.31 µM)
- MIC [6]: 16 µg/mL (≈ 34.4 µM)
- MIC80 [7]: 2 µg/mL (≈ 4.31 µM)
- MIC [8]: 2 µg/mL (≈ 4.31 µM)
- MIC [9]: 1 µg/mL (≈ 2.15 µM)
- MIC [10]: 8 µg/mL (≈ 17.2 µM)
- MIC [11]: 4 µg/mL (≈ 8.61 µM)
- MIC [12]: 8 µg/mL (≈ 17.2 µM)
- MIC [13]: 0.5 µg/mL (≈ 1.08 µM)
- MIC80 [14]: 4 µg/mL (≈ 8.61 µM)
- MIC80 [15]: 1 µg/mL (≈ 2.15 µM)

SMILES: CCn1cc(C(=O)O)c(=O)c2cc(F)c(N3CCN(Cc4nc5ccccc5n4Cc4ccc(F)cc4)CC3)cc21
- MIC [1]: 8 µg/mL (≈ 14.3 µM)
- MIC80 [2]: 8 µg/mL (≈ 14.3 µM)
- MIC [3]: 16 µg/mL (≈ 28.7 µM)
- MIC80 [4]: 32 µg/mL (≈ 57.4 µM)
- MIC [5]: 8 µg/mL (≈ 14.3 µM)
- MIC [6]: 32 µg/mL (≈ 57.4 µM)
- MIC80 [7]: 8 µg/mL (≈ 14.3 µM)
- MIC [8]: 8 µg/mL (≈ 14.3 µM)
- MIC [9]: 32 µg/mL (≈ 57.4 µM)
- MIC [10]: 32 µg/mL (≈ 57.4 µM)
- MIC [11]: 8 µg/mL (≈ 14.3 µM)
- MIC [12]: 8 µg/mL (≈ 14.3 µM)
- MIC [13]: 16 µg/mL (≈ 28.7 µM)
- MIC80 [14]: 16 µg/mL (≈ 28.7 µM)
- MIC80 [15]: 8 µg/mL (≈ 14.3 µM)

SMILES: CCn1cc(C(=O)O)c(=O)c2cc(F)c(N3CCN(Cc4nc5ccccc5n4Cc4cccc(Cl)c4)CC3)cc21
- MIC [1]: 2 µg/mL (≈ 3.48 µM)
- MIC80 [2]: 8 µg/mL (≈ 13.9 µM)
- MIC [3]: 64 µg/mL (≈ 111 µM)
- MIC80 [4]: 2 µg/mL (≈ 3.48 µM)
- MIC [5]: 4 µg/mL (≈ 6.97 µM)
- MIC [6]: 64 µg/mL (≈ 111 µM)
- MIC80 [7]: 8 µg/mL (≈ 13.9 µM)
- MIC [8]: 64 µg/mL (≈ 111 µM)
- MIC [9]: 8 µg/mL (≈ 13.9 µM)
- MIC [10]: 32 µg/mL (≈ 55.7 µM)
- MIC [11]: 2 µg/mL (≈ 3.48 µM)
- MIC [12]: 16 µg/mL (≈ 27.9 µM)
- MIC [13]: 2 µg/mL (≈ 3.48 µM)
- MIC80 [14]: 1 µg/mL (≈ 1.74 µM)
- MIC80 [15]: 4 µg/mL (≈ 6.97 µM)

SMILES: NC1CCN(c2c(F)cc3c(=O)c(C(=O)O)cn(C4CC4)c3c2Cl)C1 (stereo not drawn) [CLINAFLOXACIN]
- MIC [1]: 0.5 µg/mL (≈ 1.37 µM)
- MIC [3]: 0.5 µg/mL (≈ 1.37 µM)
- MIC [5]: 0.25 µg/mL (≈ 0.683 µM)
- MIC [6]: 0.5 µg/mL (≈ 1.37 µM)
- MIC [8]: 0.5 µg/mL (≈ 1.37 µM)
- MIC [9]: 0.5 µg/mL (≈ 1.37 µM)
- MIC [10]: 0.5 µg/mL (≈ 1.37 µM)
- MIC [11]: 0.5 µg/mL (≈ 1.37 µM)
- MIC [12]: 0.5 µg/mL (≈ 1.37 µM)
- MIC [13]: 1 µg/mL (≈ 2.73 µM)

SMILES: OC(Cn1cncn1)(Cn1cncn1)c1ccc(F)cc1F [FLUCONAZOLE]
- MIC80 [2]: 16 µg/mL (≈ 52.2 µM)
- MIC80 [4]: 4 µg/mL (≈ 13.1 µM)
- MIC80 [7]: 1 µg/mL (≈ 3.27 µM)
- MIC80 [14]: 256 µg/mL (≈ 836 µM)
- MIC80 [15]: 8 µg/mL (≈ 26.1 µM)

SMILES: O=C(O)c1cn(C2CC2)c2cc(N3CCNCC3)c(F)cc2c1=O [CIPROFLOXACIN]
- MIC [1]: 1 µg/mL (≈ 3.02 µM)
- MIC [3]: 2 µg/mL (≈ 6.04 µM)
- MIC [5]: 1 µg/mL (≈ 3.02 µM)
- MIC [8]: 0.5 µg/mL (≈ 1.51 µM)
- MIC [10]: 2 µg/mL (≈ 6.04 µM)
- MIC [11]: 2 µg/mL (≈ 6.04 µM)
- MIC [12]: 2 µg/mL (≈ 6.04 µM)
- MIC [13]: 2 µg/mL (≈ 6.04 µM)
